#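 The compound was tested at five concentrations on cells cultured in 96-well plates, with a 48-hour exposure period. GI50 is the concentration that inhibits growth by half. Definition used: TGI = concentration required for complete inhibition of growth.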
# Assays:
# Experiment in all cases: DTP human tumour cell line panel, 48 h
# BT-549 breast = test system: BT-549 breast
# SW-620 colon = test system: SW-620 colon
# U251 CNS = test system: U251 CNS
# K-562 leukemia = test system: K-562 leukemia
# A549 NSCLC = test system: A549 NSCLC
# HS 578T breast = test system: HS 578T breast
# MCF7 breast = test system: MCF7 breast
# COLO 205 colon = test system: COLO 205 colon
# MALME-3M melanoma = test system: MALME-3M melanoma
# SNB-19 CNS = test system: SNB-19 CNS
SMILES,GI50 (BT-549 breast),TGI (BT-549 breast),GI50 (SW-620 colon),TGI (SW-620 colon),GI50 (U251 CNS),TGI (U251 CNS),GI50 (K-562 leukemia),TGI (K-562 leukemia),GI50 (A549 NSCLC),TGI (A549 NSCLC),GI50 (HS 578T breast),TGI (HS 578T breast),GI50 (MCF7 breast),TGI (MCF7 breast),GI50 (COLO 205 colon),TGI (COLO 205 colon),GI50 (MALME-3M melanoma),TGI (MALME-3M melanoma),GI50 (SNB-19 CNS),TGI (SNB-19 CNS)
CCn1c(-c2nonc2N)nc2ccc(F)cc21,> 25 µM,> 25 µM,> 25 µM,> 25 µM,> 25 µM,> 25 µM,> 25 µM,> 25 µM,> 25 µM,> 25 µM,> 25 µM,> 25 µM,> 25 µM,> 25 µM,> 25 µM,> 25 µM,> 25 µM,> 25 µM,> 25 µM,> 25 µM
COc1cc(/C=C2\CC3C4CC=C5CC(N6CCCC6)CC[C@]5(C)C4CC[C@]3(C)C2OC(C)=O)ccc1OCCN1CCCC1 (stereo partly specified),16.6 µM,31.4 µM,,,1.81 µM,3.73 µM,1.04 µM,3.19 µM,2.08 µM,4.63 µM,2.38 µM,4.54 µM,1.62 µM,3.17 µM,3.61 µM,12.9 µM,1.49 µM,3.07 µM,5.73 µM,22.8 µM
CNC(=O)c1cn(C[C@H](F)CCc2ccc(NC(=O)Cc3cc(OC4CC(F)(F)C4)cc(C)n3)nn2)nn1,> 100 µM,> 100 µM,> 100 µM,> 100 µM,0.102 µM,> 100 µM,> 100 µM,> 100 µM,0.0594 µM,> 100 µM,5.37 µM,> 100 µM,> 100 µM,> 100 µM,> 100 µM,> 100 µM,> 100 µM,> 100 µM,> 100 µM,> 100 µM
CCCNCc1cc(C)cc2c1nc(N1CCNCC1)n2Cc1cc(C)c(F)c(C)c1,12.3 µM,26.1 µM,1.96 µM,4.34 µM,1.84 µM,3.58 µM,1.9 µM,3.78 µM,4.54 µM,17.1 µM,2.56 µM,11.6 µM,2.25 µM,6.05 µM,1.82 µM,3.42 µM,1.86 µM,3.53 µM,2.41 µM,7.18 µM
CNc1nc(NC2CCCC2)nc(Sc2ccc(OC)cc2)n1,> 10 µM,> 10 µM,> 10 µM,> 10 µM,> 10 µM,> 10 µM,> 10 µM,> 10 µM,> 10 µM,> 10 µM,> 10 µM,> 10 µM,> 10 µM,> 10 µM,> 10 µM,> 10 µM,> 10 µM,> 10 µM,> 10 µM,> 10 µM
Cc1sc(C)c(-c2ccc(CO)o2)c1-c1ccc(CO)o1,> 71.7 µM,> 100 µM,0.499 µM,> 100 µM,14.5 µM,> 100 µM,0.622 µM,> 100 µM,2.88 µM,> 100 µM,43 µM,> 100 µM,0.0787 µM,> 100 µM,,,> 100 µM,> 100 µM,> 100 µM,> 100 µM
C=C1C(=O)O[C@H]2[C@H]1CC/C(COC(=O)c1cc3cc(OC)ccc3[nH]1)=C\CC[C@@]1(C)O[C@@H]21,1.06 µM,2.86 µM,0.647 µM,2.34 µM,1.6 µM,2.95 µM,0.562 µM,10.8 µM,1.66 µM,3.38 µM,3.09 µM,11.8 µM,0.341 µM,1.74 µM,1.18 µM,2.72 µM,1.61 µM,3.14 µM,1.57 µM,3.2 µM
COc1ccc2c(-c3cc4ccccc4o3)cc(=O)oc2c1,,> 100 µM,,> 100 µM,,> 96 µM,,> 100 µM,,> 100 µM,,43.6 µM,,> 100 µM,,> 100 µM,,> 100 µM,,> 100 µM
Cc1c(-c2nc(N)nc(C3CC3)c2C)nc(N)nc1C1CC1,,> 100 µM,,> 100 µM,,> 100 µM,,> 100 µM,,> 100 µM,,> 100 µM,,> 100 µM,,> 100 µM,,> 100 µM,,> 100 µM
Clc1ccc(OCc2nnc3n2N=C(c2ccc(Cl)cc2Cl)CS3)c(Cl)c1,22.4 µM,59.4 µM,31.3 µM,> 100 µM,18.7 µM,46.8 µM,33.4 µM,> 100 µM,28.8 µM,95.8 µM,29.6 µM,> 100 µM,22.5 µM,92.8 µM,34.7 µM,> 100 µM,23.8 µM,79.7 µM,34.3 µM,> 100 µM
COC(=O)c1c(O)ccc2[nH]c(C)c(C#N)c12,64 µM,> 100 µM,45.4 µM,> 100 µM,44.8 µM,> 100 µM,55.3 µM,> 100 µM,41.1 µM,> 100 µM,31 µM,92.2 µM,46.3 µM,> 100 µM,88.5 µM,> 100 µM,47.9 µM,94 µM,77.7 µM,> 100 µM
CN(C)CCNC(=O)Nc1c(C#N)[n+]([O-])c2cc(Cl)c(Cl)cc2[n+]1[O-],10.7 µM,39.8 µM,17.4 µM,69.7 µM,14.5 µM,> 100 µM,29.3 µM,> 100 µM,34 µM,> 100 µM,33.4 µM,> 100 µM,18.5 µM,> 100 µM,16.1 µM,46.3 µM,21.6 µM,> 100 µM,27.8 µM,> 100 µM
CC(=O)[CH-]C(C)=O.CC(=O)[CH-]C(C)=O.N=CC=N.[Sn+2],2.76 µM,8.25 µM,1.71 µM,3.11 µM,5.16 µM,17.1 µM,2.19 µM,13 µM,9.6 µM,22.4 µM,2.66 µM,10.5 µM,2.63 µM,12 µM,2.02 µM,3.61 µM,2.02 µM,4.24 µM,14.6 µM,27.8 µM
